Publication PMC4055736, “Functional Characterization of a Novel Family of Acetylcholine-Gated Chloride Channels in Schistosoma mansoni” (PLoS Pathogens, 2014)

Legend:
Type in all cases: cell-based
SmACC-1 [1] = target: T1, SmACC-1 (Schistosoma mansoni, UniProt V5WAE7); test: YFP halide sensor iodide flux assay in transfected HEK-293 cells, […] agonist
T1 construct: gene ACC-1; full-length, human codon-optimized, C-terminal FLAG tag; homomeric channel
T1 sequence (V5WAE7 24-804): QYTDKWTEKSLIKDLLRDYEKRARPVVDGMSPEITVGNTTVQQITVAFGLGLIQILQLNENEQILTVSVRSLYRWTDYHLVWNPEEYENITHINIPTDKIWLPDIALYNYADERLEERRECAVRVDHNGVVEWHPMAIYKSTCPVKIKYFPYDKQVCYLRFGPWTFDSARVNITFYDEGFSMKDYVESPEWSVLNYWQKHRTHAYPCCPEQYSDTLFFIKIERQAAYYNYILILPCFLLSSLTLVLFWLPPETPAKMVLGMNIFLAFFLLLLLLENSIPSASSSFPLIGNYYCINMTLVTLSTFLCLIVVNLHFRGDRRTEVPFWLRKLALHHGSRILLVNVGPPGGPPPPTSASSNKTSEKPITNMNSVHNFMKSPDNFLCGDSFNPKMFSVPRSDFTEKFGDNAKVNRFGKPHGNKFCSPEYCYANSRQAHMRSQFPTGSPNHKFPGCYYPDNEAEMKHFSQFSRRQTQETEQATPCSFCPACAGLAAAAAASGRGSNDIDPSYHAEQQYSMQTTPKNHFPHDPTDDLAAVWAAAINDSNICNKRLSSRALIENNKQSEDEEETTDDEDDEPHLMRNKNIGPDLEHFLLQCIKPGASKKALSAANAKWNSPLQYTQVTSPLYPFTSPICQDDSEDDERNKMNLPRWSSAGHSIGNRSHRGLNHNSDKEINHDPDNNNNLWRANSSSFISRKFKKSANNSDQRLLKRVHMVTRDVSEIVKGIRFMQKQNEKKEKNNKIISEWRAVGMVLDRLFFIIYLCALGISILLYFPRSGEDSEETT

SmACC-1 [2] = target: T1, SmACC-1; test: YFP halide sensor iodide flux assay in transfected HEK-293 cells; block of […] nicotine response by […] antagonist
SmACC-1 [3] = target: T1, SmACC-1; test: YFP halide sensor iodide flux assay in transfected HEK-293 cells, dose response (agonist)

SMILES: COC(=O)C1=CCCN(C)C1 [arecoline]
- YFP halide sensor iodide flux assay in transfected HEK-293 cells, 100 μM agonist (SmACC-1 [1]): statistically significant responses were also seen with other cholinergic agonists (ACh, choline chloride, carbachol and arecoline)

SMILES: COc1cc2c3cc1Oc1cc(ccc1O)C[C@@H]1c4c(cc(OC)c(O)c4Oc4ccc(cc4)C[C@@H]3N(C)CC2)CC[N+]1(C)C [D-tubocurarine]
- YFP halide sensor iodide flux assay in transfected HEK-293 cells; block of 100 μ (SmACC-1 [2]): only D-tubocurarine was able to significantly block the activation of SmACC-1 by nicotine

SMILES: CN1CCC[C@H]1c1cccnc1 [nicotine]
- EC50 (SmACC-1 [3]): 4.3 ± 1.4 µM

SMILES: C[N+](C)(C)CCO [choline]
- YFP halide sensor iodide flux assay in transfected HEK-293 cells, 100 μM agonist (SmACC-1 [1]): statistically significant responses were also seen with other cholinergic agonists (ACh, choline chloride, carbachol and arecoline)

SMILES: C[N+](C)(C)CCOC(N)=O [carbachol]
- YFP halide sensor iodide flux assay in transfected HEK-293 cells, 100 μM agonist (SmACC-1 [1]): statistically significant responses were also seen with other cholinergic agonists (ACh, choline chloride, carbachol and arecoline)
